Source: patent US4337199A, “Antibiotic β-lactam compounds, production thereof, and their use as antimicrobial agent” (Sanraku-Ocean Co., Ltd., priority 1978, dated 1982)
Converted amounts (≈) assume the structure as drawn.

Tests used:
Assay in all cases: minimum inhibitory concentration, agar dilution assay
Assay type in all cases: cell-based
Escherichia coli RGN 823 = details: RGN823, agar dilution, 35° C., 20 hours, read-out: minimum inhibitory concentration
Procedure: (§1) The antibiotic activities shown in Tables I-1 to I-8 above were determined in the following manner.
(§2) The minimum inhibitory concentrations of the compounds of formula (I-a-1) or (I-b-1) in Tables I-1 to I-7 and the known compounds in Table I-8 on the various microorganisms shown in the above tables were measured by an agar dilution assay method using a brain heart infusion agar medium "Difco" (a product of Difco Laboratories Inc.)
(§3) A sample of the test compound was dissolved in sterile distilled water and diluted to prepare a two-fold dilution series of the compound solution. In a petri plate of 9 cm diameter, 1 ml of the compound solution was added to 9 ml of molten sterile heart infusion agar medium (Difco Laboratories Inc.) at about 60° C. to prepare the compound-containing agar plate. An overnight culture of each test organism indicated in the above table which was prepared by stationary cultivation in Trypto-Soy broth (Eiken Chemi. Co., Ltd.) at 35° C. for 18 to 20 hours, was diluted with the Trypto-Soy broth to give approximately 10^8 cells/ml and the diluted inoculum was inoculated onto the compound-containing agar plates. After cultivating the plates at 35° C. for 20 hours, the growth of the organism was observed. The minimum concentration of the compound at which no growth of the microorganism was noted was determined, and defined as the minimum inhibitory concentration of the test compound.

Providencia sp. P8 = details: SP.P8, agar dilution, 35° C., 20 hours, read-out: minimum inhibitory concentration
Procedure: as §1, §2, §3

Serratia marcescens S18 = details: S18, agar dilution, 35° C., 20 hours, read-out: minimum inhibitory concentration
Procedure: as §1, §2, §3

Serratia marcescens T55 = details: T55, agar dilution, 35° C., 20 hours, read-out: minimum inhibitory concentration
Procedure: as §1, §2, §3

Alcaligenes faecalis A 1 = details: A1, agar dilution, 35° C., 20 hours, read-out: minimum inhibitory concentration
Procedure: as §1, §2, §3

Proteus mirabilis P6 = details: P6, agar dilution, 35° C., 20 hours, read-out: minimum inhibitory concentration
Procedure: as §1, §2, §3

[1] = system: Staphylococcus aureus Smith; details: agar dilution, 35° C., 20 hours, read-out: minimum inhibitory concentration
Procedure: as §1, §2, §3

[2] = system: Staphylococcus epidermidis; details: agar dilution, 35° C., 20 hours, read-out: minimum inhibitory concentration
Procedure: as §1, §2, §3

Enterobacter cloacae 45 = details: Enterobacter cloacae, 45; agar dilution, 35° C., 20 hours; read-out: minimum inhibitory concentration
Procedure: as §1, §2, §3

Proteus sp. P22 = details: agar dilution, 35° C., 20 hours; read-out: minimum inhibitory concentration
Procedure: as §1, §2, §3

[3] = system: Bacillus subtilis ATCC 6633; details: ATCC6633, agar dilution, 35° C., 20 hours, read-out: minimum inhibitory concentration
Procedure: as §1, §2, §3

[4] = system: Enterobacter aerogenes E19; details: Klebsiella aerogenes, E19; agar dilution, 35° C., 20 hours; read-out: minimum inhibitory concentration
Procedure: as §1, §2, §3

Proteus vulgaris GN76 = details: GN76, agar dilution, 35° C., 20 hours, read-out: minimum inhibitory concentration
Procedure: as §1, §2, §3

Proteus rettgeri P7 = details: Providencia rettgeri, P7; agar dilution, 35° C., 20 hours; read-out: minimum inhibitory concentration
Procedure: as §1, §2, §3

[5] = system: Citrobacter freundii GN 346; details: GN346, agar dilution, 35° C., 20 hours, read-out: minimum inhibitory concentration
Procedure: as §1, §2, §3

Enterobacter sp. E8 = details: SP.E8, agar dilution, 35° C., 20 hours, read-out: minimum inhibitory concentration
Procedure: as §1, §2, §3

[6] = system: Pseudomonas aeruginosa IFO3445; details: IFO3445, agar dilution, 35° C., 20 hours, read-out: minimum inhibitory concentration
Procedure: as §1, §2, §3

[7] = system: Staphylococcus aureus Russell; details: agar dilution, 35° C., 20 hours, read-out: minimum inhibitory concentration
Procedure: as §1, §2, §3

[8] = system: Staphylococcus aureus FDA 209P; details: FDA209P, agar dilution, 35° C., 20 hours, read-out: minimum inhibitory concentration
Procedure: as §1, §2, §3

[9] = system: Comamonas terrigena B-996; details: B996, agar dilution, 35° C., 20 hours, read-out: minimum inhibitory concentration
Procedure: as §1, §2, §3

Escherichia coli K-12 = details: K12, agar dilution, 35° C., 20 hours, read-out: minimum inhibitory concentration
Procedure: as §1, §2, §3

Sarcina lutea = details: Micrococcus luteus; agar dilution, 35° C., 20 hours; read-out: minimum inhibitory concentration
Procedure: as §1, §2, §3

[10] = system: Klebsiella pneumoniae K-13; details: K13, agar dilution, 35° C., 20 hours, read-out: minimum inhibitory concentration
Procedure: as §1, §2, §3

[11] = system: Pseudomonas aeruginosa NCTC10490; details: NCTC10490, agar dilution, 35° C., 20 hours, read-out: minimum inhibitory concentration
Procedure: as §1, §2, §3

| SMILES | MIC (Escherichia coli RGN 823) [µg/mL] | MIC (Providencia sp. P8) [µg/mL] | MIC (Serratia marcescens S18) [µg/mL] | MIC (Serratia marcescens T55) [µg/mL] | MIC (Alcaligenes faecalis A 1) [µg/mL] | MIC (Proteus mirabilis P6) [µg/mL] | MIC [1] [µg/mL] | MIC [2] [µg/mL] | MIC (Enterobacter cloacae 45) [µg/mL] | MIC (Proteus sp. P22) [µg/mL] | MIC [3] [µg/mL] | MIC [4] [µg/mL] | MIC (Proteus vulgaris GN76) [µg/mL] | MIC (Proteus rettgeri P7) [µg/mL] | MIC [5] [µg/mL] | MIC (Enterobacter sp. E8) [µg/mL] | MIC [6] [µg/mL] | MIC [7] [µg/mL] | MIC [8] [µg/mL] | MIC [9] [µg/mL] | further results |
| --- | --- | --- | --- | --- | --- | --- | --- | --- | --- | --- | --- | --- | --- | --- | --- | --- | --- | --- | --- | --- | --- |
| CC(O)[C@H]1C(=O)N2C(C(=O)O)=C(Sc3ccccc3)C[C@H]12 (stereo partly drawn) | 50 (≈ 164 µM) | 50 (≈ 164 µM) | > 100 | > 100 | 25 (≈ 81.9 µM) | 100 (≈ 327 µM) | 1.56 (≈ 5.11 µM) | 0.39 (≈ 1.28 µM) | > 100 | > 100 | 6.25 (≈ 20.5 µM) | > 100 | > 100 | > 100 | > 100 | 100 (≈ 327 µM) | 25 (≈ 81.9 µM) | 0.78 (≈ 2.55 µM) | 0.05 (≈ 0.164 µM) | 0.05 (≈ 0.164 µM) | MIC (Escherichia coli K-12): 50 µg/mL (≈ 164 µM); MIC (Sarcina lutea): 0.05 µg/mL (≈ 0.164 µM); MIC [10]: > 100 µg/mL; MIC [11]: 6.25 µg/mL (≈ 20.5 µM) |
| CC(O)C1C(=O)N2C(C(=O)O)=C(Sc3ccccc3)CC12 (stereo not drawn) | 25 (≈ 81.9 µM) | 3.13 (≈ 10.3 µM) | 100 (≈ 327 µM) | 100 (≈ 327 µM) | 1.56 (≈ 5.11 µM) | 12.5 (≈ 40.9 µM) | 0.1 (≈ 0.327 µM) | 0.013 (≈ 0.0426 µM) | 12.5 (≈ 40.9 µM) | > 100 | 0.013 (≈ 0.0426 µM) | 12.5 (≈ 40.9 µM) | > 100 | 100 (≈ 327 µM) | 100 (≈ 327 µM) | 3.13 (≈ 10.3 µM) | 50 (≈ 164 µM) | 0.013 (≈ 0.0426 µM) | < 0.007 | < 0.007 | MIC (Escherichia coli K-12): 3.13 µg/mL (≈ 10.3 µM); MIC (Sarcina lutea): < 0.007 µg/mL; MIC [10]: > 100 µg/mL; MIC [11]: 50 µg/mL (≈ 164 µM) |
| CCC1C(=O)N2C(C(=O)O)=C(Sc3ncccn3)CC12 (stereo not drawn) [Example 61, 3-(2-pyrimidinylthio)-6-ethyl-7-oxo-1-azabicyclo[3.2.0]hept-2-ene-2-carboxylic acid] | 3.13 (≈ 10.7 µM) | 0.78 (≈ 2.68 µM) | 12.5 (≈ 42.9 µM) | 25 (≈ 85.8 µM) | 0.2 (≈ 0.687 µM) | 3.13 (≈ 10.7 µM) | 0.024 (≈ 0.0824 µM) | 0.024 (≈ 0.0824 µM) | 25 (≈ 85.8 µM) | 12.5 (≈ 42.9 µM) | < 0.012 | 12.5 (≈ 42.9 µM) | 6.25 (≈ 21.5 µM) | 3.13 (≈ 10.7 µM) | 25 (≈ 85.8 µM) | 3.13 (≈ 10.7 µM) | 12.5 (≈ 42.9 µM) | < 0.012 | < 0.012 | < 0.012 | MIC (Escherichia coli K-12): 1.56 µg/mL (≈ 5.35 µM); MIC (Sarcina lutea): < 0.012 µg/mL; MIC [10]: 12.5 µg/mL (≈ 42.9 µM); MIC [11]: 12.5 µg/mL (≈ 42.9 µM) |
| CC(C)C1C(=O)N2C(C(=O)O)=C(Sc3ncccn3)CC12 (stereo not drawn) [Example 62, 3-(2-Pyrimidinylthio)-6-isopropyl-7-oxo-1-azabicyclo[3.2.0]hept-2-ene-2-carboxylic acid] | 3.13 (≈ 10.3 µM) | 1.56 (≈ 5.11 µM) | 25 (≈ 81.9 µM) | > 100 | 0.39 (≈ 1.28 µM) | 3.13 (≈ 10.3 µM) | 0.025 (≈ 0.0819 µM) | 0.05 (≈ 0.164 µM) | > 100 | 12.5 (≈ 40.9 µM) | 0.013 (≈ 0.0426 µM) | > 100 | 12.5 (≈ 40.9 µM) | 3.13 (≈ 10.3 µM) | 50 (≈ 164 µM) | 12.5 (≈ 40.9 µM) | 25 (≈ 81.9 µM) | 0.013 (≈ 0.0426 µM) | 0.007 (≈ 0.0229 µM) | 0.013 (≈ 0.0426 µM) | MIC (Escherichia coli K-12): 6.25 µg/mL (≈ 20.5 µM); MIC (Sarcina lutea): 0.013 µg/mL (≈ 0.0426 µM); MIC [10]: 25 µg/mL (≈ 81.9 µM); MIC [11]: 25 µg/mL (≈ 81.9 µM) |
